This note sets out measurements from patent US5661147A, “Imidazoquinazoline derivatives” (Kyowa Hakko Kogyo Co., Ltd., priority 1993, dated 1997).

Structures can show the parent of a compound that is named as a salt. Bounds are passed on as bounds.

Experiment [1] deals with T1, PDE V (cGMP-specific PDE) (Canis lupus familiaris, UniProt O77746).
T1 construct: purified from canine tracheal smooth muscle; from tissue; host or cells: canine tracheal smooth muscle
Put plainly: Inhibitory activity on PDE V purified from canine tracheal smooth muscle (Test Example 1). Type of experiment: biochemical. The following applies: 1.0 μM [3H]cGMP substrate; for inhibition at 0.001 µM: 1 nM, read-out: PDE Inhibitory activity, PDE V, Percent inhibition. The procedure: The inhibitory activity on PDE derived from canine tracheal smooth muscle
The measurement of the PDE I activity was carried out using 1.0 μM [^3 H]cAMP as a substrate in the presence of 0.4 mM CaCl2 and 20 units/ml calmodulin. The measurement of the PDE II activity was carried out using 1.0 μM [^3 H]cAMP as a substrate in the presence of 10 μM cGMP. The measurement of the PDE III, IV and V activity was carried out using, as a substrate, 1.0 μM [^3 H]cAMP, 1.0 μM [^3 H]cAMP and 1.0 μM [3H]cGMP, respectively. […] Respective reactions were carried out in a buffer having the following composition:
50 mM N,N-bis(2-hydroxyethyl)-2-aminoethanesulfonic acid (pH 7.2), 1 mM MgCl2, 0.1 mg/ml soybean trypsin inhibitor.
(§1) The reaction was started by addition of an enzyme and stopped by addition of hydrochloric acid after 10 to 30 minutes at 30° C. Thereafter, sodium hydroxide was added to neutralize and 5'-AMP or 5'-GMP was converted into adenosine or guanosine using 5'-nucleotidase. The reaction solution was subjected to DEAE-Sephadex A-25 column. [^3 H]Adenosine [^3 H]guanosine was eluted with distilled water and the radioactivity was measured with a liquid scintillation counter.

The target of experiment [2] is T2, PDE III (cAMP-specific PDE which is inhibited by cGMP) (Canis lupus familiaris, UniProt A0A8I3NYE0).
T2 construct: purified from canine tracheal smooth muscle; from tissue; host or cells: canine tracheal smooth muscle
T2 sequence (A0A8I3NYE0 1-1135): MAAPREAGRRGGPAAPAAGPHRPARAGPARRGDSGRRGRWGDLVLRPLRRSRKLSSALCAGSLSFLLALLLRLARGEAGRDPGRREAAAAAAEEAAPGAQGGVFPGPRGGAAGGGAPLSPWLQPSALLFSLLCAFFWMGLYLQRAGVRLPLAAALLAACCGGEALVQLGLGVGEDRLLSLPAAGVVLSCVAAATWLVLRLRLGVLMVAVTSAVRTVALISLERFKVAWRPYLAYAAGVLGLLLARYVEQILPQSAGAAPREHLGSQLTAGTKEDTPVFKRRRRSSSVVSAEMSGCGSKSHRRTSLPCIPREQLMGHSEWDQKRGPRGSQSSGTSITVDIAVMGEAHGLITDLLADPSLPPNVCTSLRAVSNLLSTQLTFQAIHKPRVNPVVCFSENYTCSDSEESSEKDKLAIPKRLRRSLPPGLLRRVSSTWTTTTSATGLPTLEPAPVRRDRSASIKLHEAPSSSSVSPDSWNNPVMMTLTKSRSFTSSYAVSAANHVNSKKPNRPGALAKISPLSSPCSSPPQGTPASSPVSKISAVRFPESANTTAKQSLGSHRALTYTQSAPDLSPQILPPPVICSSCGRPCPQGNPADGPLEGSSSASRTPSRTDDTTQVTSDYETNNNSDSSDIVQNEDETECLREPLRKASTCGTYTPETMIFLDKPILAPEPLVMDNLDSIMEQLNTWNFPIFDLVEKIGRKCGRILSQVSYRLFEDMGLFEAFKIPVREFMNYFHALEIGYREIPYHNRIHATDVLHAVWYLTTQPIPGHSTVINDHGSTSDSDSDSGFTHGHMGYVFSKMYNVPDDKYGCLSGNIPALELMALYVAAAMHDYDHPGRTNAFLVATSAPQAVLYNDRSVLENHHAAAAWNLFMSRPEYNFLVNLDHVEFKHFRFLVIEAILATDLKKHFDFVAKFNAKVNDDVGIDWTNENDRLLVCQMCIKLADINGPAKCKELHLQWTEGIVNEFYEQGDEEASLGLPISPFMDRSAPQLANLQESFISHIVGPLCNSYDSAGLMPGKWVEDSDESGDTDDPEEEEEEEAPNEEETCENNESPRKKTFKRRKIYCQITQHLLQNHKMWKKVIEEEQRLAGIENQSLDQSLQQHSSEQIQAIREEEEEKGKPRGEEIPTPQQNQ
The experiment can be described thus: Inhibitory activity on PDE III purified from canine tracheal smooth muscle (Test Example 1). Type of experiment: biochemical. The following applies: 1.0 μM [3H]cAMP substrate, 10 μM rolipram added; for inhibition at 1 µM: read-out: PDE Inhibitory activity, PDE III, Percent inhibition. The procedure: as §1

Experiment [3] concerns PDE II (PDE which is activated by cGMP). Put plainly: Inhibitory activity on PDE II purified from canine tracheal smooth muscle (Test Example 1). Type of experiment: biochemical. The following applies: 10 μM; 1.0 μM [3H]cAMP substrate, 10 μM cGMP. On the procedure:
as §1

Experiment [4] deals with PDE I (PDE which is activated by calmodulin). The experiment can be described thus: Inhibitory activity on PDE I purified from canine tracheal smooth muscle (Test Example 1). Type of experiment: biochemical. The following applies: 10 μM; 1.0 μM [3H]cAMP substrate, CaCl2 and calmodulin. On the procedure:
as §1

In experiment [5] the test system is PDE IV (cAMP-specific PDE). Put plainly: Inhibitory activity on PDE IV purified from canine tracheal smooth muscle (Test Example 1). It counts as biochemical. The following applies: 1.0 μM [3H]cAMP substrate, 25 μM cGMP added. The procedure:
as §1

Experiment [6] is described as follows: Hypotensive effects in guinea pigs (Test Example 2). It counts as in vivo, guinea pig. The following applies: anesthetized guinea pigs, in DMSO. The procedure: Hypotensive effects in guinea pigs.
After a guinea pig, anesthetized with pentobarbital, was fixed in the supine position, a cannula was inserted into trachea and guinea pig was artificially ventilated under the conditions of a tidal volume of […] and 60 breathes/min. The carotid artery and the jugular vein were cannulated for measuring arterial blood pressure and administering drugs, respectively. Drugs were dissolved in DMSO (50 μl) and administered intravenously using the above cannula.
The maximum percent values from the pre-drug level (100%) in mean blood pressure (mBP) were obtained.

On to `CCn1c(=O)[nH]c2cc3c(NCc4cccc(OC)c4)ncnc3cc21` [Compound 15, 3-ethyl-8-(3-methoxybenzylamino)-2,3-dihydro-1H-imidazo[4,5-g]quinazoline-2-one hydrochloride], for which the inhibition at 0.001 µM in experiment [1] was 67%. In addition, the inhibition at 1 µM in experiment [2] was found to be 50%.

As for `CCn1c(=O)[nH]c2cc3c(NCc4ccc(F)c(F)c4)ncnc3cc21` [Compound 20, 8-(3,4-difluorobenzylamino)-3-ethyl-2,3-dihydro-1H-imidazo[4,5-g]quinazoline-2-one hydrochloride], the inhibition at 0.001 µM in experiment [1] stood at 69%. Also, in experiment [2], the inhibition at 1 µM worked out at 47%.

`CCn1c(=O)[nH]c2cc3c(NCC4CCCO4)ncnc3cc21` (stereo not drawn) [Compound 30, 3-ethyl-8-(2,3,4,5-tetrahydro-2-furylmethylamino)^- 2,3-dihydro-1H-imidazo[4,5-g]quinazoline-2-one hydrochloride]: in experiment [3], the “PDE Inhibitory activity, PDE II, Percent inhibition” value stood at 61%. In addition, the “PDE Inhibitory activity, PDE I, Percent inhibition” value in experiment [4] is given as 58%. Also, the IC50 in experiment [1] is 0.18 nM; in experiment [2] it was 1100 nM; in experiment [5], more than 10000 nM.

Take `CCn1c(=S)[nH]c2cc3c(NCc4ccccc4)ncnc3cc21` [Compound 39, 8-benzylamino-3-ethyl-2,3-dihydro-1H-imidazo[4,5-g]quinazoline-2-thione]: the “maximum percent values from the pre-drug level (100%) in mean blood pressure (mBP)” value in experiment [6] (1 μg/kg i.v.) turned out to be 100.20%; in experiment [6] (3 μg/kg i.v.), 80.00%; in experiment [6] (10 μg/kg i.v.) it was 72.30%; in experiment [6] (30 μg/kg i.v.) it was 51.20%.

On to `CCCn1c(=S)[nH]c2cc3c(NCc4ccccc4)ncnc3cc21` [Compound 42, 8-benzylamino-3-(n-propyl)-2,3-dihydro-1H-imidazo[4,5-g]quinazoline-2-thione], for which the inhibition at 0.001 µM in experiment [1] came to 94%. In addition, the inhibition at 1 µM in experiment [2] was found to be 27%.

Consider `CCn1c(=S)[nH]c2cc3c(NCc4ccncc4)ncnc3cc21.Cl.Cl` [Compound 47, 3-ethyl-8-(4-pyridylmethylamino)-2,3-dihydro-1H-imidazo[4,5-g]quinazoline-2-thione dihydrochloride], for which, in experiment [3], the “PDE Inhibitory activity, PDE II, Percent inhibition” value was found to be 19%. Besides, in experiment [4], the “PDE Inhibitory activity, PDE I, Percent inhibition” value is 12%. In experiment [1], the inhibition at 0.001 µM amounted to 91%. The inhibition at 1 µM in experiment [2] came to 60%. For the same compound, the “PDE Inhibitory activity, PDE IV, Percent inhibition” value in experiment [5] (10 μM) is 20%.

In the case of `CCn1c(=S)[nH]c2cc3c(NCc4cccc(OC)c4)ncnc3cc21` [Compound 51, 3-ethyl-8-(3-methoxybenzylamino)-2,3-dihydro-1H-imidazo[4,5-g]quinazoline-3-thione hydrochloride], the inhibition at 0.001 µM in experiment [1] came to 97%. In addition, in experiment [2], the inhibition at 1 µM came out at 48%.

As for `CCn1c(=S)[nH]c2cc3c(NCc4cccc(C(F)(F)F)c4)ncnc3cc21` [Compound 54, 3-ethyl-8-(3-trifluoromethylbenzylamino)-2,3-dihydro-1H-imidazo[4,5-g]quinazoline-2-thione hydrochloride], the inhibition at 0.001 µM in experiment [1] worked out at 96%. For the same compound, the inhibition at 1 µM in experiment [2] worked out at 32%.

A word on the inhibition: it is the relative decrease from the control value, in per cent. The term IC50 denotes the point on the concentration scale where inhibition reaches its midpoint. High values mean a need for much substance, low ones inhibition by little substance.
